Experimental data reported in PubChem BioAssay (NCI).
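Five concentrations, 48 hours, 96-well plates. GI50 is the concentration that inhibits growth by half. The concentration for full growth arrest is given as TGI.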

What was measured:
Assay in all cases: NCI anticancer screen, dose series, 48 h
SK-OV-3 ovarian = system: SK-OV-3 ovarian
NCI-H460 lung = system: NCI-H460 lung
TK-10 renal = system: TK-10 renal
MDA-MB-435 = system: MDA-MB-435
SF-268 CNS = system: SF-268 CNS
UACC-62 melanoma = system: UACC-62 melanoma
SNB-19 CNS = system: SNB-19 CNS
OVCAR-5 ovarian = system: OVCAR-5 ovarian
OVCAR-3 ovarian = system: OVCAR-3 ovarian
LOX IMVI melanoma = system: LOX IMVI melanoma
CAKI-1 renal = system: CAKI-1 renal
K-562 leukemia = system: K-562 leukemia
HT29 colon = system: HT29 colon
786-0 renal = system: 786-0 renal
DU-145 prostate = system: DU-145 prostate
KM12 colon = system: KM12 colon
SN12C renal = system: SN12C renal
COLO 205 colon = system: COLO 205 colon
HS 578T breast = system: HS 578T breast
CCRF-CEM leukemia = system: CCRF-CEM leukemia
OVCAR-4 ovarian = system: OVCAR-4 ovarian
SK-MEL-2 melanoma = system: SK-MEL-2 melanoma
MOLT-4 leukemia = system: MOLT-4 leukemia
HCT-116 colon = system: HCT-116 colon
HOP-92 NSCLC = system: HOP-92 NSCLC
MDA-MB-231 breast = system: MDA-MB-231 breast
PC-3 prostate = system: PC-3 prostate
NCI-H23 lung = system: NCI-H23 lung
HCC-2998 colon = system: HCC-2998 colon
MALME-3M melanoma = system: MALME-3M melanoma
HOP-62 NSCLC = system: HOP-62 NSCLC
SK-MEL-28 melanoma = system: SK-MEL-28 melanoma
RPMI-8226 leukemia = system: RPMI-8226 leukemia
OVCAR-8 ovarian = system: OVCAR-8 ovarian
SF-539 CNS = system: SF-539 CNS
BT-549 breast = system: BT-549 breast
NCI-H522 lung = system: NCI-H522 lung
SNB-75 CNS = system: SNB-75 CNS
RXF 393 renal = system: RXF 393 renal
A498 renal = system: A498 renal
SF-295 CNS = system: SF-295 CNS
EKVX NSCLC = system: EKVX NSCLC
HL-60(TB) leukemia = system: HL-60(TB) leukemia
M14 melanoma = system: M14 melanoma
T-47D breast = system: T-47D breast
U251 CNS = system: U251 CNS
A549 NSCLC = system: A549 NSCLC
HCT-15 colon = system: HCT-15 colon
SW-620 colon = system: SW-620 colon
NCI/ADR-RES ovarian = system: NCI/ADR-RES ovarian
MCF7 breast = system: MCF7 breast
SK-MEL-5 melanoma = system: SK-MEL-5 melanoma
UACC-257 melanoma = system: UACC-257 melanoma
MDA-MB-468 breast = system: MDA-MB-468 breast
UO-31 renal = system: UO-31 renal
NCI-H226 lung = system: NCI-H226 lung
IGROV1 ovarian = system: IGROV1 ovarian
ACHN renal = system: ACHN renal

Q: How did the GI50 (SK-OV-3 ovarian) turn out when COc1ccc(-c2nc3cc(C)ccc3n2CC(=O)N=Nc2c(O)[nH]c3ccc(Br)cc23)cc1 was run?
A: 3.92 µM

Q: What about the TGI (SK-OV-3 ovarian) of the same compound?
A: 38.3 µM

Q: And the GI50 (NCI-H460 lung)?
A: 1.86 µM

Q: What about the TGI (NCI-H460 lung) of the same compound?
A: 4.1 µM

Q: And the GI50 (TK-10 renal)?
A: 3.63 µM

Q: And the TGI (TK-10 renal)?
A: 20.6 µM

Q: And the GI50 (MDA-MB-435)?
A: 2.12 µM

Q: And the TGI (MDA-MB-435)?
A: 7.52 µM

Q: What about the GI50 (SF-268 CNS) of the same compound?
A: 2.94 µM

Q: And the TGI (SF-268 CNS)?
A: 31.7 µM

Q: And the GI50 (UACC-62 melanoma)?
A: 1.78 µM

Q: And the TGI (UACC-62 melanoma)?
A: 6.09 µM

Q: What about the GI50 (SNB-19 CNS) of the same compound?
A: 3.14 µM

Q: And the TGI (SNB-19 CNS)?
A: 49.6 µM

Q: What about the GI50 (OVCAR-5 ovarian) of the same compound?
A: 2.56 µM

Q: What about the TGI (OVCAR-5 ovarian) of the same compound?
A: 13.6 µM

Q: What about the GI50 (OVCAR-3 ovarian) of the same compound?
A: 1.93 µM

Q: And the TGI (OVCAR-3 ovarian)?
A: 4.29 µM

Q: What about the GI50 (LOX IMVI melanoma) of the same compound?
A: 1.48 µM

Q: And the TGI (LOX IMVI melanoma)?
A: 3.29 µM

Q: What about the GI50 (CAKI-1 renal) of the same compound?
A: 3.6 µM

Q: And the TGI (CAKI-1 renal)?
A: 29.1 µM

Q: What about the GI50 (K-562 leukemia) of the same compound?
A: 3.66 µM

Q: And the TGI (K-562 leukemia)?
A: > 84.5 µM

Q: And the GI50 (HT29 colon)?
A: 1.98 µM

Q: What about the TGI (HT29 colon) of the same compound?
A: 4.36 µM

Q: What about the GI50 (786-0 renal) of the same compound?
A: 3.48 µM

Q: What about the TGI (786-0 renal) of the same compound?
A: 16.6 µM

Q: What about the GI50 (DU-145 prostate) of the same compound?
A: 3.29 µM

Q: And the TGI (DU-145 prostate)?
A: 16.1 µM

Q: What about the GI50 (KM12 colon) of the same compound?
A: 2.81 µM

Q: What about the TGI (KM12 colon) of the same compound?
A: 16 µM

Q: And the GI50 (SN12C renal)?
A: 2.16 µM

Q: What about the TGI (SN12C renal) of the same compound?
A: 10.6 µM

Q: And the GI50 (COLO 205 colon)?
A: 2.29 µM

Q: What about the TGI (COLO 205 colon) of the same compound?
A: 8.06 µM

Q: What about the GI50 (HS 578T breast) of the same compound?
A: 1.96 µM

Q: And the TGI (HS 578T breast)?
A: 6.44 µM

Q: And the GI50 (CCRF-CEM leukemia)?
A: 3.05 µM

Q: And the TGI (CCRF-CEM leukemia)?
A: 32.1 µM

Q: What about the GI50 (OVCAR-4 ovarian) of the same compound?
A: 2.76 µM

Q: And the TGI (OVCAR-4 ovarian)?
A: 11.2 µM

Q: What about the GI50 (SK-MEL-2 melanoma) of the same compound?
A: 3.28 µM

Q: What about the TGI (SK-MEL-2 melanoma) of the same compound?
A: 18.6 µM

Q: What about the GI50 (MOLT-4 leukemia) of the same compound?
A: 3.22 µM

Q: What about the TGI (MOLT-4 leukemia) of the same compound?
A: 44.5 µM

Q: What about the GI50 (HCT-116 colon) of the same compound?
A: 1.88 µM

Q: What about the TGI (HCT-116 colon) of the same compound?
A: 4.49 µM

Q: And the GI50 (HOP-92 NSCLC)?
A: 1.34 µM

Q: What about the TGI (HOP-92 NSCLC) of the same compound?
A: 4.59 µM

Q: And the GI50 (MDA-MB-231 breast)?
A: 2.17 µM

Q: And the TGI (MDA-MB-231 breast)?
A: 7.97 µM

Q: What about the GI50 (PC-3 prostate) of the same compound?
A: 2.07 µM

Q: And the TGI (PC-3 prostate)?
A: 14.5 µM

Q: And the GI50 (NCI-H23 lung)?
A: 1.93 µM

Q: What about the TGI (NCI-H23 lung) of the same compound?
A: 5.88 µM

Q: What about the GI50 (HCC-2998 colon) of the same compound?
A: 2.75 µM

Q: What about the TGI (HCC-2998 colon) of the same compound?
A: 16.4 µM

Q: What about the GI50 (MALME-3M melanoma) of the same compound?
A: 1.59 µM

Q: What about the TGI (MALME-3M melanoma) of the same compound?
A: 3.2 µM

Q: And the GI50 (HOP-62 NSCLC)?
A: 2.31 µM

Q: And the TGI (HOP-62 NSCLC)?
A: 9.66 µM

Q: What about the GI50 (SK-MEL-28 melanoma) of the same compound?
A: 1.51 µM

Q: What about the TGI (SK-MEL-28 melanoma) of the same compound?
A: 2.96 µM

Q: What about the GI50 (RPMI-8226 leukemia) of the same compound?
A: 2.98 µM

Q: What about the TGI (RPMI-8226 leukemia) of the same compound?
A: 42.2 µM

Q: What about the GI50 (OVCAR-8 ovarian) of the same compound?
A: 1.58 µM

Q: What about the TGI (OVCAR-8 ovarian) of the same compound?
A: 3.49 µM

Q: What about the GI50 (SF-539 CNS) of the same compound?
A: 1.55 µM

Q: What about the TGI (SF-539 CNS) of the same compound?
A: 3.36 µM

Q: What about the GI50 (BT-549 breast) of the same compound?
A: 2.05 µM

Q: And the TGI (BT-549 breast)?
A: 5.92 µM

Q: What about the GI50 (NCI-H522 lung) of the same compound?
A: 7.39 µM

Q: And the TGI (NCI-H522 lung)?
A: 31.1 µM

Q: What about the GI50 (SNB-75 CNS) of the same compound?
A: 1.61 µM

Q: What about the TGI (SNB-75 CNS) of the same compound?
A: 12.7 µM

Q: And the GI50 (RXF 393 renal)?
A: 1.33 µM

Q: And the TGI (RXF 393 renal)?
A: 3.54 µM

Q: What about the GI50 (A498 renal) of the same compound?
A: 24.9 µM

Q: And the TGI (A498 renal)?
A: 60.1 µM

Q: What about the GI50 (SF-295 CNS) of the same compound?
A: 2.93 µM

Q: What about the TGI (SF-295 CNS) of the same compound?
A: 14.2 µM

Q: And the GI50 (EKVX NSCLC)?
A: 2.1 µM

Q: What about the TGI (EKVX NSCLC) of the same compound?
A: 11.2 µM

Q: And the GI50 (HL-60(TB) leukemia)?
A: 5.51 µM

Q: And the TGI (HL-60(TB) leukemia)?
A: > 84.5 µM

Q: What about the GI50 (M14 melanoma) of the same compound?
A: 1.6 µM

Q: And the TGI (M14 melanoma)?
A: 3.49 µM

Q: And the GI50 (T-47D breast)?
A: 2.85 µM

Q: And the TGI (T-47D breast)?
A: 34.6 µM

Q: And the GI50 (U251 CNS)?
A: 1.64 µM

Q: What about the TGI (U251 CNS) of the same compound?
A: 3.55 µM

Q: What about the GI50 (A549 NSCLC) of the same compound?
A: 1.75 µM

Q: What about the TGI (A549 NSCLC) of the same compound?
A: 3.95 µM

Q: What about the GI50 (HCT-15 colon) of the same compound?
A: 2.83 µM

Q: What about the TGI (HCT-15 colon) of the same compound?
A: 16.9 µM

Q: What about the GI50 (SW-620 colon) of the same compound?
A: 2.4 µM

Q: And the TGI (SW-620 colon)?
A: 9.15 µM

Q: And the GI50 (NCI/ADR-RES ovarian)?
A: 1.88 µM

Q: And the TGI (NCI/ADR-RES ovarian)?
A: 5 µM

Q: What about the GI50 (MCF7 breast) of the same compound?
A: 2.23 µM

Q: What about the TGI (MCF7 breast) of the same compound?
A: 10.2 µM

Q: And the GI50 (SK-MEL-5 melanoma)?
A: 2.59 µM

Q: What about the TGI (SK-MEL-5 melanoma) of the same compound?
A: 8.3 µM

Q: What about the GI50 (UACC-257 melanoma) of the same compound?
A: 1.95 µM

Q: And the TGI (UACC-257 melanoma)?
A: 6.33 µM

Q: And the GI50 (MDA-MB-468 breast)?
A: 1.88 µM

Q: What about the TGI (MDA-MB-468 breast) of the same compound?
A: 4.41 µM

Q: And the GI50 (UO-31 renal)?
A: 19.4 µM

Q: What about the TGI (UO-31 renal) of the same compound?
A: > 84.5 µM

Q: And the GI50 (NCI-H226 lung)?
A: 1.97 µM

Q: And the TGI (NCI-H226 lung)?
A: 7.23 µM

Q: And the GI50 (IGROV1 ovarian)?
A: 2.93 µM

Q: What about the TGI (IGROV1 ovarian) of the same compound?
A: 18.2 µM

Q: And the GI50 (ACHN renal)?
A: 2.38 µM

Q: What about the TGI (ACHN renal) of the same compound?
A: 8.75 µM
